ChEMBL document CHEMBL1128468, “Amino acid side chain descriptors for quantitative structure-activity relationship studies of peptide analogues” (J Med Chem, 1995)
Peptide text beside a SMILES is read from it.

Experiments:
Substance-K receptor [1] = target: T1, Substance-K receptor (Oryctolagus cuniculus, UniProt P79218); assay: Antagonist activity against Tachykinin receptor 2 was measured by Rabbit pulmonary artery(RPA) assay.; assay type: functional; conditions: read-out: pA2 (converted)
T1 sequence (P79218 whole entry): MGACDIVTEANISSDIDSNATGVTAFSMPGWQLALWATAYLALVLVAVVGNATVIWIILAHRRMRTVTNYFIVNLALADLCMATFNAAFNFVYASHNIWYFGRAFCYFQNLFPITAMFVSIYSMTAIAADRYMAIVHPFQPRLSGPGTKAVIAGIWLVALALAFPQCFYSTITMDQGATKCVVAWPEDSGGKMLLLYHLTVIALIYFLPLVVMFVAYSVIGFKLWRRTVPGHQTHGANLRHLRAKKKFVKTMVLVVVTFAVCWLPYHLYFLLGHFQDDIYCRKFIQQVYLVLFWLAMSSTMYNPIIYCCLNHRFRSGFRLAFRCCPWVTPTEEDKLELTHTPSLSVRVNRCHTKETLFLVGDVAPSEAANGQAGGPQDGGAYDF

Substance-K receptor [2] = target: T2, Substance-K receptor (Rattus norvegicus, UniProt P16610); assay: Antagonism against Tachykinin receptor 2 in rat vas deferens(RVD); assay type: functional; conditions: read-out: pA2 (converted)
T2 sequence (P16610 whole entry): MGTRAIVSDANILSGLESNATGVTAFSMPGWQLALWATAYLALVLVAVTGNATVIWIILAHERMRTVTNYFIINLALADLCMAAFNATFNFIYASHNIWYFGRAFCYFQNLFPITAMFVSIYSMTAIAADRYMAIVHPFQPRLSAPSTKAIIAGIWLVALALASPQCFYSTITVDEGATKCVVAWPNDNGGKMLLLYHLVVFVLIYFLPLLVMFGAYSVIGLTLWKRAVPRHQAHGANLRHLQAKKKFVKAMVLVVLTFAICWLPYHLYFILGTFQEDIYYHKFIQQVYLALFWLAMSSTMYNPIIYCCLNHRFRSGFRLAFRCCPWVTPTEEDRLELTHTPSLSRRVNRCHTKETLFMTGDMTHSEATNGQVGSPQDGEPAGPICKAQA

Substance-K receptor [3] = target: T3, Substance-K receptor (Mesocricetus auratus, UniProt P51144); assay: Antagonist activity against Tachykinin receptor 2 was measured by Hamster isolated trachea(HT) assay.; assay type: functional, tissue-based; conditions: read-out: pA2 (converted)
T3 sequence (P51144 whole entry): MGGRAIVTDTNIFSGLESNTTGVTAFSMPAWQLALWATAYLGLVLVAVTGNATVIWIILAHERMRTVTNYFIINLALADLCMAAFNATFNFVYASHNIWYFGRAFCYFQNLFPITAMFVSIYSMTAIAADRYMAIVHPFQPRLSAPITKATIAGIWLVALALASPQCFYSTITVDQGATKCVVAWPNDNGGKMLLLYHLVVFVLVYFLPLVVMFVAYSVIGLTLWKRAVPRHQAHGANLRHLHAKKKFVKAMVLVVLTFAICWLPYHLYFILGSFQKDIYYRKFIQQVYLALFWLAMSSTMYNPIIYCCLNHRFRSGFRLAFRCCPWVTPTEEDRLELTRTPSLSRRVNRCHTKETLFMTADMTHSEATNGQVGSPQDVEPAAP

[4] = Bitter tasting threshold was expressed as log 1/T.; assay type: functional
[5] = target: Angiotensin-converting enzyme (Homo sapiens, UniProt P12821); assay: Biological activity was measured against Angiotensin I converting enzyme; conditions: read-out: Log 1/IC50 (converted)
Angiotensin-converting enzyme, sequence (P12821 whole entry): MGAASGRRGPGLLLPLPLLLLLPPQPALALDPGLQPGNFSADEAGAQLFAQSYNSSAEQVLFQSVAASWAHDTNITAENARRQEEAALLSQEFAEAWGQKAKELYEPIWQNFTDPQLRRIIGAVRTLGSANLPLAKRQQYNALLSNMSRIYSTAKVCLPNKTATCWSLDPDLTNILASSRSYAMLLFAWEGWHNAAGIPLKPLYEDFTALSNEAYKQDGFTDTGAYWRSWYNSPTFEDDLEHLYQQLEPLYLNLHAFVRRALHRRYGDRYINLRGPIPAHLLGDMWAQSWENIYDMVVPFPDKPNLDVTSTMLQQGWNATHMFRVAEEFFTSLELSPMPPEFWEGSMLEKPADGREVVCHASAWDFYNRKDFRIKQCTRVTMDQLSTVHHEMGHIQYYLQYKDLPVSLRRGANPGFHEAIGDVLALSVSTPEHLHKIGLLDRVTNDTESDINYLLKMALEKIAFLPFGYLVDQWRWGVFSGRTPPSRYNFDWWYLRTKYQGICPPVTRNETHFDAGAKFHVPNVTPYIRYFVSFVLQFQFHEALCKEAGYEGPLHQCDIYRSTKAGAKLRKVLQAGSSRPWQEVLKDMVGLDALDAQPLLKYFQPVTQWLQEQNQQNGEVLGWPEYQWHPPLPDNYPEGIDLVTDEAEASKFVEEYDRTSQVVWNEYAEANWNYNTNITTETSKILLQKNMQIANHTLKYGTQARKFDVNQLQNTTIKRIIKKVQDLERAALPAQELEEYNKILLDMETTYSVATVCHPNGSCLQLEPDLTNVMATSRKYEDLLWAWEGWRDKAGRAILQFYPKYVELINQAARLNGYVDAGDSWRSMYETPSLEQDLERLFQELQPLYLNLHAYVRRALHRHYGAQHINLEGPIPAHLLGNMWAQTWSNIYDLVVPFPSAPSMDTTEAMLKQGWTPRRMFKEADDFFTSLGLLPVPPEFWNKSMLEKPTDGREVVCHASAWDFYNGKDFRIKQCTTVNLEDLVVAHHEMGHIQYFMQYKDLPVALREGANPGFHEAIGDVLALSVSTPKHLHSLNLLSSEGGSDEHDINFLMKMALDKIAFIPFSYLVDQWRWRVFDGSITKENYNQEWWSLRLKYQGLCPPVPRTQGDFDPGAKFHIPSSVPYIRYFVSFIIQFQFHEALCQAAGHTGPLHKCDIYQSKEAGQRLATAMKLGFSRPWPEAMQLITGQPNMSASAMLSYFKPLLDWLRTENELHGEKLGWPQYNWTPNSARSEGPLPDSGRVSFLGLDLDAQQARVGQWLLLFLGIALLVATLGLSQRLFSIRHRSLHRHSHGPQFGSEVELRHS

Oxytocin receptor = target: T4, Oxytocin receptor (Rattus norvegicus, UniProt P70536); assay: Biological activity against Oxytocin receptor in rat
T4 sequence (P70536 whole entry): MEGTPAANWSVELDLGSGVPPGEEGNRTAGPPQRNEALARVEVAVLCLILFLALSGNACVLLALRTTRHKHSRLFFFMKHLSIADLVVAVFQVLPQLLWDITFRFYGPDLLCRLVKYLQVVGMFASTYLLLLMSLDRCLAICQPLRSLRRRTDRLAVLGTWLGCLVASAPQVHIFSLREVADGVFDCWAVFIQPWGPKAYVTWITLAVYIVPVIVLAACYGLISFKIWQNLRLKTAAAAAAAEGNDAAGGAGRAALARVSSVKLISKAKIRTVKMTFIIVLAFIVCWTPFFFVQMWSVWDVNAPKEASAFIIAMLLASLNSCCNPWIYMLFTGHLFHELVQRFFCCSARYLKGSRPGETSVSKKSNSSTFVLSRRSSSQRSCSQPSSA

Kb (Substance-K receptor [1]) [µM]	Kb (Substance-K receptor [2]) [µM]	Kb (Substance-K receptor [3]) [µM]	IC50 [5] [µM]	pA2 (Oxytocin receptor)	Compound	Log 1/T [4]
2.63	0.0309	0.427	–	–	CC(C)[C@H](NC(=O)[C@@H](Cc1c[nH]c2ccccc12)NC(=O)[C@H](Cc1ccc(O)cc1)NC(=O)[C@@H](N)CC(=O)O)C(=O)N[C@H](Cc1c[nH]c2ccccc12)C(=O)N[C@H](Cc1c[nH]c2ccccc12)C(=O)N[C@@H](CCC(=O)O)C(=O)O	–
–	–	–	2510	–	CC(C)C[C@H](NC(=O)CN)C(=O)O	1.68
12.9	4.37	17.4	–	–	H-DYPVWWR-OH	–
100	25.7	15.5	–	–	CC(C)[C@H](NC(=O)[C@H](Cc1c[nH]c2ccccc12)NC(=O)[C@H](Cc1ccc(O)cc1)NC(=O)[C@@H](N)CC(=O)O)C(=O)N[C@H](Cc1c[nH]c2ccccc12)C(=O)N[C@H](Cc1c[nH]c2ccccc12)C(=O)N[C@@H](CCCN=C(N)N)C(=O)O	–
0.191	0.224	0.646	–	–	CC(C)C[C@H](NC(=O)[C@@H](Cc1c[nH]c2ccccc12)NC(=O)[C@@H](NC(=O)[C@@H](Cc1c[nH]c2ccccc12)NC(=O)[C@H](Cc1ccc(O)cc1)NC(=O)[C@@H](N)CC(=O)O)C(C)C)C(=O)N[C@@H](CCCN=C(N)N)C(=O)O	–
100	14.1	14.8	–	–	CSCC[C@H](NC(=O)[C@H](CC(C)C)NC(=O)CNC(=O)[C@@H](Cc1c[nH]c2ccccc12)NC(=O)[C@H](Cc1ccccc1)NC(=O)[C@H](Cc1ccc(O)cc1)NC(=O)[C@@H](N)CC(=O)O)C(=O)O	–
–	–	–	–	5.51	CC[C@H](C)[C@H](NC(=O)[C@@H](Cc1c[nH]c2ccccc12)NC(=O)CC1(S)CCCCC1)C(=O)N[C@H](CCCNC(N)=O)C(=O)N[C@@H](CC(N)=O)C(=O)N[C@@H](CS)C(=O)N1CCC[C@H]1C(=O)N[C@@H](CCCN=C(N)N)C(=O)NCC(N)=O	–
0.263	0.38	0.562	–	–	CC(C)[C@@H](NC(=O)[C@@H](Cc1c[nH]c2ccccc12)NC(=O)[C@@H](Cc1ccc(O)cc1)NC(=O)[C@@H](N)CC(=O)O)C(=O)NCC(=O)N[C@H](Cc1c[nH]c2ccccc12)C(=O)N[C@H](CCCN=C(N)N)C(=O)O	–
100	0.191	1.74	–	–	CC(C)[C@H](NC(=O)[C@@H](Cc1c[nH]c2ccccc12)NC(=O)[C@H](Cc1ccc(O)cc1)NC(=O)[C@@H](N)CC(=O)O)C(=O)N[C@H](Cc1c[nH]c2ccccc12)C(=O)N[C@H](Cc1c[nH]c2ccccc12)C(=O)N[C@@H](Cc1ccc(O)cc1)C(=O)O	–
–	–	–	–	5.24	CC[C@H](C)[C@H](NC(=O)[C@@H](Cc1c[nH]c2ccccc12)NC(=O)CC1(S)CCCCC1)C(=O)N[C@H](CCC(N)=O)C(=O)N[C@@H](CC(N)=O)C(=O)N[C@@H](CS)C(=O)N1CCC[C@H]1C(=O)N[C@@H](CCCN=C(N)N)C(=O)NCC(N)=O	–
5.89	7.76	9.12	–	–	CSCC[C@H](NC(=O)[C@H](CC(C)C)NC(=O)CNC(=O)[C@@H](Cc1c[nH]c2ccccc12)NC(=O)[C@H](Cc1ccccc1)NC(=O)[C@@H](Cc1c[nH]c2ccccc12)NC(=O)[C@@H](N)CC(=O)O)C(=O)O	–
1.35	0.295	0.355	–	–	C[C@H](NC(=O)[C@@H](Cc1c[nH]c2ccccc12)NC(=O)[C@H](Cc1ccc(O)cc1)NC(=O)[C@@H](N)CC(=O)O)C(=O)N[C@H](Cc1c[nH]c2ccccc12)C(=O)N[C@H](Cc1c[nH]c2ccccc12)C(=O)N[C@@H](CCCCN)C(=O)O	–
–	–	–	631	–	NCC(=O)N[C@@H](Cc1ccccc1)C(=O)O (H-Gly-Phe-OH)	1.8
0.0224	0.251	1.58	–	–	CC(C)[C@H](NC(=O)[C@@H](Cc1c[nH]c2ccccc12)NC(=O)[C@H](Cc1ccc(O)cc1)NC(=O)[C@@H](N)CC(=O)O)C(=O)N[C@H](Cc1c[nH]c2ccccc12)C(=O)N[C@H](Cc1c[nH]c2ccccc12)C(=O)N[C@@H](CCCN=C(N)N)C(=O)O	–
1.48	0.0347	0.141	–	–	CC(C)[C@H](NC(=O)[C@@H](Cc1c[nH]c2ccccc12)NC(=O)[C@H](Cc1ccc(O)cc1)NC(=O)[C@@H](N)CC(=O)O)C(=O)N[C@H](Cc1c[nH]c2ccccc12)C(=O)N[C@H](Cc1c[nH]c2ccccc12)C(=O)NCC(=O)O	–

Second part, the compound before the results:

Compound	Kb (Substance-K receptor [1]) [µM]	Kb (Substance-K receptor [2]) [µM]	Kb (Substance-K receptor [3]) [µM]	IC50 [5] [µM]	pA2 (Oxytocin receptor)	Log 1/T [4]
CC(C)[C@H](NC(=O)[C@@H](Cc1c[nH]c2ccccc12)NC(=O)[C@H](Cc1c[nH]c2ccccc12)NC(=O)[C@@H](N)CC(=O)O)C(=O)N[C@H](Cc1c[nH]c2ccccc12)C(=O)N[C@H](Cc1c[nH]c2ccccc12)C(=O)N[C@@H](CCCN=C(N)N)C(=O)O	6.31	0.339	11.2	–	–	–
CC(C)[C@H](NC(=O)[C@@H](Cc1c[nH]c2ccccc12)NC(=O)[C@H](Cc1ccc(O)cc1)NC(=O)[C@@H](N)CC(=O)O)C(=O)N[C@H](Cc1c[nH]c2ccccc12)C(=O)N[C@H](Cc1c[nH]c2ccccc12)C(=O)N[C@@H](Cc1ccccc1)C(=O)O	1.26	0.288	0.933	–	–	–
C[C@H](N)C(=O)N[C@@H](Cc1ccccc1)C(=O)O	–	–	–	191	–	1.72
H-DYYVYYR-OH	100	9.33	100	–	–	–
CC(C)[C@H](NC(=O)[C@@H](Cc1c[nH]c2ccccc12)NC(=O)[C@@H](Cc1c[nH]c2ccccc12)NC(=O)[C@@H](N)CC(=O)O)C(=O)N[C@H](Cc1c[nH]c2ccccc12)C(=O)N[C@H](Cc1c[nH]c2ccccc12)C(=O)N[C@@H](CCCN=C(N)N)C(=O)O	100	2.4	31.6	–	–	–
CC[C@H](C)[C@H](NC(=O)[C@@H](Cc1c[nH]c2ccccc12)NC(=O)CC1(S)CCCCC1)C(=O)N[C@H](CC(N)=O)C(=O)N[C@@H](CC(N)=O)C(=O)N[C@@H](CS)C(=O)N1CCC[C@H]1C(=O)N[C@@H](CCCN=C(N)N)C(=O)NCC(N)=O	–	–	–	–	5.41	–
CC(C)C[C@H](NC(=O)[C@@H](N)C(C)C)C(=O)O (H-Val-Leu-OH)	–	–	–	–	–	2
CC[C@H](C)[C@@H]1NC(=O)[C@@H](Cc2c[nH]c3ccccc23)NC(=O)CC2(CCCCC2)SSC(C)(C)[C@H](C(=O)N2CCC[C@H]2C(=O)N[C@@H](CCCN=C(N)N)C(=O)NCC(N)=O)NC(=O)[C@H](CC(N)=O)NC(=O)[C@H](CCC(=O)O)NC1=O	–	–	–	–	7.98	–
CC(C)[C@H](NC(=O)[C@@H](Cc1c[nH]c2ccccc12)NC(=O)[C@H](Cc1ccc(O)cc1)NC(=O)[C@@H](N)CC(N)=O)C(=O)N[C@H](Cc1c[nH]c2ccccc12)C(=O)N[C@H](Cc1c[nH]c2ccccc12)C(=O)N[C@@H](CCCN=C(N)N)C(=O)O	0.0646	0.347	1.17	–	–	–
CC[C@H](C)[C@H](N)C(=O)N[C@H](C(=O)O)C(C)O (single isomer, unassigned)	–	–	–	–	–	1.49
CCC(C)[C@H](NC(=O)[C@@H](N)[C@@H](C)CC)C(=O)O (single isomer, unassigned)	–	–	–	–	–	2.26
CSCC[C@H](NC(=O)[C@@H](Cc1c[nH]c2ccccc12)NC(=O)[C@@H](Cc1c[nH]c2ccccc12)NC(=O)[C@@H](NC(=O)[C@@H](Cc1c[nH]c2ccccc12)NC(=O)[C@H](Cc1ccc(O)cc1)NC(=O)[C@@H](N)CC(=O)O)C(C)C)C(=O)O	0.0891	0.38	1.45	–	–	–
CC(C)[C@@H](NC(=O)[C@@H](Cc1c[nH]c2ccccc12)NC(=O)[C@@H](Cc1ccc(O)cc1)NC(=O)[C@@H](N)CC(=O)O)C(=O)N[C@H](Cc1c[nH]c2ccccc12)C(=O)N[C@H](Cc1c[nH]c2ccccc12)C(=O)N[C@H](CCCN=C(N)N)C(=O)O	0.407	0.851	1.1	–	–	–
